What was measured:
[1] = xn = mol fraction of the nth substance listed; conditions: 298.15 K; for mass density: 101 kPa, Liquid
[2] = refractive index (Na D-line) (dimensionless); xn = mol fraction of the nth substance listed; conditions: 298.15 K, 101 kPa, Liquid, Standard Abbe refractometry
[3] = 298.15 K; for mass density: 101.33 kPa, Liquid
[4] = refractive index (Na D-line) (dimensionless); conditions: 298.15 K; 101.33 kPa; Liquid; Standard Abbe refractometry

CCCC(=O)O [butanoic acid] + O
Conditions | mass density, [1] [kg/m3] | refractive index, [2] | surface tension liquid-gas, [1] [mN/m]
x1 = 4e-05 | 997.14 | 1.33256 | 71.12
x1 = 0.0001 | 997.28 | 1.33259 | 70.47
x1 = 0.0006 | 997.35 | 1.33282 | 66.32
x1 = 0.0016 | 997.39 | 1.33325 | 60.32
x1 = 0.0028 | – | – | 55.12
x1 = 0.0056 | 998.24 | 1.33514 | 46.34
x1 = 0.0075 | – | – | 42.12
x1 = 0.0136 | 999.83 | 1.33877 | 35.88
x1 = 0.0201 | 1000.84 | 1.34064 | 31.94
x1 = 0.0299 | 1001.79 | 1.34506 | 29.24
x1 = 0.048 | 1001.61 | 1.35064 | 28.48
x1 = 0.0596 | 1000.55 | 1.35359 | 28.35
x1 = 0.0865 | 998.76 | 1.35959 | 28.23
x1 = 0.1034 | 997.68 | 1.36283 | 28.15
x1 = 0.2033 | 992.5 | 1.37695 | 27.92
x1 = 0.2997 | 987.71 | 1.38524 | 27.73
x1 = 0.381 | 983.12 | 1.38923 | 27.66
x1 = 0.5038 | 977.2 | 1.3933 | 27.56
x1 = 0.5763 | 973.62 | 1.39471 | 27.42
x1 = 0.7036 | 967.47 | 1.39625 | 27.13
x1 = 0.8019 | 962.35 | 1.39667 | 26.9
x1 = 0.9189 | 957.18 | 1.39654 | 26.51

O=CO [formic acid] + O
Conditions | mass density, [1] [kg/m3] | refractive index, [2] | surface tension liquid-gas, [1] [mN/m]
x1 = 0.0007 | 997.52 | 1.33265 | 71.48
x1 = 0.0015 | 998.02 | 1.33269 | 71.14
x1 = 0.0028 | 998.79 | 1.33271 | 70.65
x1 = 0.0067 | 1001.27 | 1.33343 | 69.45
x1 = 0.0106 | 1003.6 | 1.3344 | 68.59
x1 = 0.0154 | 1006.31 | 1.33496 | 67.53
x1 = 0.0277 | 1013.84 | 1.33633 | 65.46
x1 = 0.0442 | – | – | 63.13
x1 = 0.0538 | 1026.93 | 1.33912 | –
x1 = 0.0755 | – | – | 59.92
x1 = 0.1098 | 1052.76 | 1.34454 | 57.29
x1 = 0.1539 | 1069.49 | 1.34829 | 55.23
x1 = 0.204 | 1086.51 | 1.35223 | 52.74
x1 = 0.3004 | 1114.3 | 1.35863 | 49.18
x1 = 0.4178 | 1141.55 | 1.36478 | 47.25
x1 = 0.5101 | 1158.59 | 1.36885 | 45.73
x1 = 0.6133 | 1174.83 | 1.3722 | 43.41
x1 = 0.7058 | 1187.06 | 1.37444 | 41.42
x1 = 0.8162 | 1198.4 | 1.37543 | 40.12
x1 = 0.8967 | 1204.13 | 1.37543 | 39.13

O=CO [formic acid]
Conditions | mass density [kg/m3] | refractive index | surface tension liquid-gas [mN/m]
[3] | 1211.29 | – | 38.17
[4] | – | 1.37459 | –

CCCC(=O)O [butanoic acid]
Conditions | mass density [kg/m3] | refractive index | surface tension liquid-gas [mN/m]
[3] | 953.17 | – | 26.19
[4] | – | 1.39599 | –
